Measured values from patent US8568699B2, “Soft anticholinergic zwitterions” (priority 2005, dated 2013).
Where a name gives a salt, the structure may show the parent alone. Read-outs that look alike come from different tables or passages of the source.

Assays:
[1] = target: T1, cloned human muscarinic receptor subtype M1 (Homo sapiens, UniProt P11229); assay: Receptor binding, N-[3H]-methyl-scopolamine, M1; conditions: numbers in parentheses
T1 sequence (P11229 1-460): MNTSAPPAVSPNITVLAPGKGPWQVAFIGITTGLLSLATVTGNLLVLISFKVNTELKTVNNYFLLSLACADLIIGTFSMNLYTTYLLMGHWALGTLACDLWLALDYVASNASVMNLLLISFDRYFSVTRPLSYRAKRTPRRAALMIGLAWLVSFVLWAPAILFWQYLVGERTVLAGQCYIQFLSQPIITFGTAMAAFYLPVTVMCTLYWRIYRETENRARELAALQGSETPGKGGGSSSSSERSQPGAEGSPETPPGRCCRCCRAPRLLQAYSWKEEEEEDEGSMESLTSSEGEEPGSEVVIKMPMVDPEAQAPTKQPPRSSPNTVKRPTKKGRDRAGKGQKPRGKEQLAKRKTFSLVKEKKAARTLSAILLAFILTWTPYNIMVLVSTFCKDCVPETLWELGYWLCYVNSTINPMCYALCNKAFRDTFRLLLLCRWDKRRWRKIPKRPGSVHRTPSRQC

[2] = target: T2, cloned human muscarinic receptor subtype M2 (Homo sapiens, UniProt P08172); assay: Receptor binding, N-[3H]-methyl-scopolamine, M2
T2 sequence (P08172 1-466): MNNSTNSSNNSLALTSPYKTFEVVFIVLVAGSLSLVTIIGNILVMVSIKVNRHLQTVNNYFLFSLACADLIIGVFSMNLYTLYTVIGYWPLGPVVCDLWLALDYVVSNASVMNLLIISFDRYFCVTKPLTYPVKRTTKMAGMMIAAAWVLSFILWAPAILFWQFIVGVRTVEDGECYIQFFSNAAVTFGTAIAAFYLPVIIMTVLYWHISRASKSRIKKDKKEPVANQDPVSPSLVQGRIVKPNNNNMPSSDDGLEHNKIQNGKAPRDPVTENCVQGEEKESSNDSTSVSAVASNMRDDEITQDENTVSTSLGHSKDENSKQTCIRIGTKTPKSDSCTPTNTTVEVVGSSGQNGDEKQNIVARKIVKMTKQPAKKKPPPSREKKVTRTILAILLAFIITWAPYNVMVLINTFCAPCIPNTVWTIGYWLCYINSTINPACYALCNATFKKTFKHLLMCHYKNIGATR

[3] = target: T3, cloned human muscarinic receptor subtype M3 (Homo sapiens, UniProt P20309); assay: Receptor binding, N-[3H]-methyl-scopolamine, M3; conditions: for M3 Hill slope: numbers in parentheses
T3 construct: purchased Applied Cell Science Inc. (Rockville, Md.)
T3 sequence (P20309 whole entry): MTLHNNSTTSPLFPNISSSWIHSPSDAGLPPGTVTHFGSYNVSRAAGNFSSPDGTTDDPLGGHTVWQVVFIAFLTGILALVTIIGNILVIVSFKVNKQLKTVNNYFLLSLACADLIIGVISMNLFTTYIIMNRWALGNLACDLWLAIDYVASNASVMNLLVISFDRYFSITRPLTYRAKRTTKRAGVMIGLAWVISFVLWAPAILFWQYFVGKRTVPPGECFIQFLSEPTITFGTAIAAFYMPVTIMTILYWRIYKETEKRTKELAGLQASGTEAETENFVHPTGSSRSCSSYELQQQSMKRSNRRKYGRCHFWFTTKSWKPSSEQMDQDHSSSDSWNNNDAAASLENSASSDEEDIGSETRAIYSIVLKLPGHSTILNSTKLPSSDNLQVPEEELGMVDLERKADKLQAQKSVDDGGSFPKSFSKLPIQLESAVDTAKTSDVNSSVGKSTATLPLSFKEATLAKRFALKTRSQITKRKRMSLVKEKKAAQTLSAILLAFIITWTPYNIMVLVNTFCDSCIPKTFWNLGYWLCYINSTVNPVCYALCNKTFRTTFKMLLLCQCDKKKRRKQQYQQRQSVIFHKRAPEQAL

[4] = target: T4, cloned human muscarinic receptor subtype M4 (Homo sapiens, UniProt P08173); assay: Receptor binding, N-[3H]-methyl-scopolamine, M4; conditions: numbers in parentheses
T4 construct: purchased Applied Cell Science Inc. (Rockville, Md.)
T4 sequence (P08173 1-479): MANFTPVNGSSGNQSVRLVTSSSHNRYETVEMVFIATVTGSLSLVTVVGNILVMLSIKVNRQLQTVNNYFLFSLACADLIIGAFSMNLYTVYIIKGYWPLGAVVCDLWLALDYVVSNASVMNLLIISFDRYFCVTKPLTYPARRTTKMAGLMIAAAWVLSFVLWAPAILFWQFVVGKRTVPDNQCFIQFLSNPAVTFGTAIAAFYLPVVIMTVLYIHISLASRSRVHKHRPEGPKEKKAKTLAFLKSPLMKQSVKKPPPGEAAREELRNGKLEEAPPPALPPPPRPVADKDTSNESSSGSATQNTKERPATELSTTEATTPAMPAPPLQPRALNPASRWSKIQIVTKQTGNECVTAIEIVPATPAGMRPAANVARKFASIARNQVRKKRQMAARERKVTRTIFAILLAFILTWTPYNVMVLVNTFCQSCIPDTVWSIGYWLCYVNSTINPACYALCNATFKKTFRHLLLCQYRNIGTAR

[5] = target: cloned human muscarinic receptors (M1-M4 subtypes); assay: Receptor binding, values stated across subtypes M1-M4
[6] = system: electrically stimulated guinea pig tracheal strips; format: cell-based
[7] = system: muscarinic M3 cholinoceptors (guinea pig tracheal rings); format: cell-based
[8] = Table 6, numbers in parentheses
[9] = electrically stimulated guinea pig tracheal strips
[10] = time from washout to 20% recovery of cholinergic responses

CCOC(=O)C[N+]1(C)CC[C@H](OC(=O)[C@](O)(c2ccccc2)C2CCCC2)C1 (mixture of isomers) [Compound (j), (2R,3′S) 3(2-Cyclopentyl-2-phenyl-2-hydroxyacetoxy)-1-(ethoxycarbonylmethyl)-1-methylpyrrolidinium bromide]
M1 Hill slope ([1]; Table 6): (1.21 ± 0.33) | M2 Hill slope [2, 8]: (1.27 ± 0.11) | M3/M2 muscarinic-receptor subtype-selectivity ([3]; M3 affinity relative to M2 affinity): 2.8±0.8 times | Selectivity M3/M2 (M3/M2 affinity ratio) ([3]; Table 6): 2.8 ± 0.8 times | M3 Hill slope ([3]; Table 6): (1.33 ± 0.16) | M4 Hill slope ([4]; Table 6): (1.15 ± 0.03) | pKi (range over M1-M4) [5]: 8.2-8.7

C[N+]1(C)CCC(OC(=O)C(O)(c2ccccc2)C2CCCC2)C1 (mixture of isomers) [glycopyrrolate, glycopyrronium bromide]
M1 Hill slope ([1]; Table 1): (1.37 ± 0.20) | M1 Hill slope ([1]; Table 6): (1.37 ± 0.20) | M2 Hill slope ([2]; Table 1, numbers in parentheses): (0.99 ± 0.11) | M2 Hill slope [2, 8]: (0.99 ± 0.11) | M3 Hill slope ([3]; Table 1): (1.14 ± 0.25) | M3 Hill slope ([3]; Table 6): (1.14 ± 0.25) | M4 Hill slope ([4]; Table 1): (1.02 ± 0.01) | M4 Hill slope ([4]; Table 6): (1.02 ± 0.01) | pKi (range over M1-M4) [5]: 8.7-9.9

CN1[C@@H]2CC[C@H]1C[C@@H](OC(=O)C(CO)c1ccccc1)C2 (stereo partly shown) [Atropine]
t1/5 offset [6]: 10 min | t1/5 onset [6]: 2.5 min

C[N+]1(CC(=O)[O-])[C@@H]2C[C@@H](OC(=O)C(O)(c3cccs3)c3cccs3)C[C@H]1[C@@H]1O[C@@H]12 (stereo partly drawn) [Compound (aa), 6β,7β-epoxy-3β-hydroxy-8-carboxymethyl-8-methyl-1αH,5αH-tropanium, di-2-thienylglycolate inner salt]
t1/5 onset [6, 9]: 0.9 min | t1/5 offset [6, 10]: 27 min

CCOC(=O)C[N+]1(C)[C@@H]2C[C@@H](OC(=O)C(O)(c3cccs3)c3cccs3)C[C@H]1[C@@H]1O[C@@H]12 (stereo partly drawn) [Compound (w), 6β,7β-epoxy-3β-hydroxy-8-ethoxycarbonylmethyl-8-methyl-1αH,5αH-tropanium bromide, di-2-thienylglycolate]
pA2 ([7]; antagonism against carbachol, isolated guinea pig tracheal rings, four animals): 8.82 | t1/5 onset [6, 9]: 0.6 min | t1/5 offset [6, 10]: 60 min

CC(C)[N+]1(C)[C@@H]2CC[C@H]1CC(OC(=O)C(CO)c1ccccc1)C2.[Br-] (stereo partly shown) [Ipratropium Br, ipratropium bromide]
pA2 [7]: 9.18 | t1/5 onset [6]: 3.0 min

C[N+]1(C)[C@@H]2C[C@@H](OC(=O)C(O)(c3cccs3)c3cccs3)C[C@H]1[C@@H]1O[C@@H]12 [Tiotropium]
t1/5 offset [6]: >360 min | t1/5 onset [6]: 8.0 min

C[N+]1(C)[C@@H]2C[C@@H](OC(=O)[C@H](CO)c3ccccc3)C[C@H]1[C@@H]1O[C@@H]12 [scopolamine methyl bromide, scopolamine methylbromide]
M2 Hill slope [2]: (1.02 ± 0.02)
